Assay results taken from patent publication US8809356B2, “Inhibitors of NEDD8-activating enzyme” (Millennium Pharmaceuticals, Inc., priority 2011, dated 2014).

Columns and labels:
NAE = molecular target: T1, NAE (Homo sapiens, UniProt Q8TBC4); assay: In vivo Tumor Pharmacodynamic Model (neddylated cullins in HCT116 tumor xenografts); parameters: species or system female Ncr nude mice; settings: expected from the pharmacodynamic and pharmacokinetic figures (FIGS. 1-3)
T1 construct: endogenous in cells; host or cells: HCT116 (ATCC CCL-247) subcutaneous tumour xenografts in female Ncr nude mice
T1 sequence (Q8TBC4 1-463): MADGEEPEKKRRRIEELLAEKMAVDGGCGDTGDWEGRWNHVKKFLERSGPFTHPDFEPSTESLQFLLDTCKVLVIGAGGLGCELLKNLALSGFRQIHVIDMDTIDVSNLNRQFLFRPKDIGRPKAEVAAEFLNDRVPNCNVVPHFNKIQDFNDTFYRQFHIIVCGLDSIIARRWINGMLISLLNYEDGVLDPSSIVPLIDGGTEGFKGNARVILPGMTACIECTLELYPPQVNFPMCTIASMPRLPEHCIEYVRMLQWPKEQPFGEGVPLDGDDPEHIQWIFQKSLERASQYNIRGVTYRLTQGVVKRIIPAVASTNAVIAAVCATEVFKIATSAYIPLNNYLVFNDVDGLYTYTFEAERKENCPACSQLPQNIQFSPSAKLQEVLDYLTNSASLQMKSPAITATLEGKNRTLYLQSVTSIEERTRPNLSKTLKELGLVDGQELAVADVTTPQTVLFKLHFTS
T1 sequence (Q13564 1-534 partner): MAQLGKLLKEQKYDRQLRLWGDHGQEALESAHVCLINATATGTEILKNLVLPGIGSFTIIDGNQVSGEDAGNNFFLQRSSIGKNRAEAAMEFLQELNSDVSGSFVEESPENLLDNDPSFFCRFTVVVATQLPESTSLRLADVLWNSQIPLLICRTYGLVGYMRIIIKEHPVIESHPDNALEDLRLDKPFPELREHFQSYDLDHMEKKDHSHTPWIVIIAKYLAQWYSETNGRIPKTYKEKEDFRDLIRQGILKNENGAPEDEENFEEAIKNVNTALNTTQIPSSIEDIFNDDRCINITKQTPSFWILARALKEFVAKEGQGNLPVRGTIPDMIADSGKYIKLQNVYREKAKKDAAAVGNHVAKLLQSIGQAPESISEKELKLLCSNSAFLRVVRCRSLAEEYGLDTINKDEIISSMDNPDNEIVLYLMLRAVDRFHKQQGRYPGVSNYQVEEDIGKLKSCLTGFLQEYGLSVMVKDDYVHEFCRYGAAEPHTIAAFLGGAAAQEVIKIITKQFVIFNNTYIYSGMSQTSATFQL
Procedure: HCT116 tumor cells (2×10^6) (ATCC #CCL-247) in 100 μL phosphate buffered saline were aseptically injected into the subcutaneous space in the right dorsal flank of female Ncr nude mice (age 5-8 weeks, Charles River) using a 26-gauge needle. Beginning on day 7 after inoculation, tumors were measured twice weekly using a vernier caliper. Tumor volumes were calculated using standard procedures (0.5×(length×width^2)). When the tumors reached a volume of approximately 3-700 mm^3 mice were randomized into groups and injected subcutaneously with compound inhibitor (200 μL) at various doses. Tumors were harvested and crushed in Covaris bags and then transferred to glass tubes on dry ice for sonication in the Covaris E200. […] Supernatants were transferred to new tubes and protein concentrations were determined using the Pierce bicinchoninic acid (BCA) reagents and protein standards. […]
For quantitative analysis of neddylated cullins the procedure was as follows: 20 μg of tumor lysate with lithium dodecyl sulfate (LDS) loading buffer and sample reducing agent (Invitrogen NP0007 and NP0004) was loaded onto 4-12% bis-tris gels, […], 10 well gels (Invitrogen NP0315Box). […] Quantitation of signals on Western blots was performed with the Odyssey software.

[1] = Pharmacokinetic parameters (plasma AUC) after single subcutaneous administration in HCT116 xenograft mice; type: in vivo; settings: I-216 at 10 mg/kg, female Ncr nude mice bearing HCT116 tumor xenografts

Compound: CO[C@H]1Cc2cc(Cl)ccc2[C@H]1Nc1cc(O[C@@H]2C[C@@H](COS(N)(=O)=O)[C@@H](O)C2)ncn1 [I-216, {(1S,2S,4R)-4-[(6-{[(1R,2S)-5-chloro-2-methoxy-2,3-dihydro-1H-inden-1-yl]amino}pyrimidin-4-yl)oxy]-2-hydroxycyclopentyl}methyl sulfamate]
- potency as inhibitor of NAE relative to I-115 (NAE): 2- to 3 fold
- plasma AUC compared with I-115 at 30 mg/kg [1]: comparable to that observed for I-115 administered at 30 mg/kg
- plasma AUC compared with I-216 at 30 mg/kg [1]: approximately half the AUC observed for I-216 administered at 30 mg/kg
